Measurements as given in patent publication US20250281483A1, “TRANSCRIPTION FACTOR EB ACTIVATORS AND USES THEREOF” (Astellas Engineered Small Molecules US, Incorporated, priority 2022, published 2025).

Experiments:
[1] = In Vitro Liver Microsomes Metabolic Stability Assay, mouse; type: in vitro ADME; settings: mouse liver microsomes 0.5 mg/mL, 1 μM compound, NADPH, 0 and 30 min; scale-up CLint; read-out: CLint, Mouse LM
Protocol: (§1) In Vitro Liver Microsomes Metabolic Stability Assay of Different Species
(§2) 1. The liver microsomes were stored at −80° C. prior to use.
(§3) 2. The master solution was prepared according to Table 3.
(§4) 3. 40 μL of 10 mM NADPH solution was added to each well. The final concentrations of NADPH was 1 mM. The mixture was pre-warmed at 37° C. for 5 minutes. The negative control samples were prepared by replacing NADPH solutions with 40 μL of ultra-pure H2O. The negative control was used to exclude the misleading factor that resulted from instability of chemical itself. Samples with NADPH were prepared in duplicate. Negative controls were prepared in singlet.
(§5) 4. The reaction was started with the addition of 2 μL of 200 μM control compound or test compound solutions. Verapamil was used as positive control in this study. The final concentration of test compound or control compound was 1 μM.
(§6) 5. Aliquots of 50 μL were taken from the reaction solution at 0 and 30 minutes. The reaction was stopped by the addition of 4 volumes of cold acetonitrile with Internal Standard (100 nM alprazolam, 200 nM imipramine, 200 nM labetalol and 2 μM ketoprofen). Samples were centrifuged at 3, 220 g for 40 minutes. Aliquot of 90 μL of the supernatant was mixed with 90 μL of ultra-pure H2O and then used for LC-MS/MS analysis.
(§7) Peak areas were determined from extracted ion chromatograms. The slope value, k, was determined by linear regression of the natural logarithm of the remaining percentage of the parent drug vs. incubation time curve.
(§8) The in vitro half-life (in vitro t1/2) was determined from the slope value:
(§9) Conversion of the in vitro t1/2 (min) into the in vitro intrinsic clearance (in vitro CLint, in μL/min/mg protein) was done using the following equation (mean of duplicate determinations): […]
(§10) Conversion of the in vitro t1/2 (min) into the scale-up unbound intrinsic clearance (Scale-up CLint, in mL/min/kg) was done using the following equation (mean of duplicate determinations): […]

[2] = molecular target: T1, TFEB (Homo sapiens, UniProt P19484); assay: Tfeb-Translocation Assay HEK-293T-oEX-Tfeb-GFP Cell Line; type: cell-based; settings: HEK-293T-oEX-TFEB-GFP cells; translocation positive cells ratio; read-out: TFEB Translocation EC50
T1 sequence (P19484 1-476): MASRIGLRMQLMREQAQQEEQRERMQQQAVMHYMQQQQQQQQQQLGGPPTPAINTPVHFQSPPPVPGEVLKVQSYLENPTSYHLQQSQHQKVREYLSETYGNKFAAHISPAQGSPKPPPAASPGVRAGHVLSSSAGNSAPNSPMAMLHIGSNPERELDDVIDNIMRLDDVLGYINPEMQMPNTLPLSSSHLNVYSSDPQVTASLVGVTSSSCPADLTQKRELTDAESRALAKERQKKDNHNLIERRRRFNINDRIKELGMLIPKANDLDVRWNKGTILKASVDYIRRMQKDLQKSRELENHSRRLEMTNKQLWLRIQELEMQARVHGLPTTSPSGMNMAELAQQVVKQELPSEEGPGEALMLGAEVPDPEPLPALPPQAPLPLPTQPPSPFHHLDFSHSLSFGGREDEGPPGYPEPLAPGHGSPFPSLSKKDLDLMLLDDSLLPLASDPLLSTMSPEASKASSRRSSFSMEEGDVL
Protocol: Tfeb-Translocation Assay HEK-293T-oEX-Tfeb-GFP Cell Line
• 1). Added 2×10^6 cell into a T75 flask with 15 mL DiVEM medium (with 10% FBS, 1% PS, 1×GLUTAMAX, 1×MEM NEAA, 1×HEPES Buffer Solution and 5 ug/mL blasticidin). • 2). Culturing for 48-72 hours. Cells in logarithmic growth phase were taken for experiment. The other cells were passaged as described in step 1. • 3). Seeded 1×10^4 cells/30 μL/well into 384-well plate (BD 356663). Cultured overnight at 37° C. & 5% CO2 incubator. • 4). Note: Used cells <10 passage
• 1). Compounds were firstly diluted by DMSO to the stock needed (10 mM), and aliquoted and stored at −20° C. • 2). Took one aliquot each time and made 3-fold or 2-fold dilutions as indicated, total 10 doses plus one DMSO control well in the source plate. • 3). Added 150 or 90 nL/well compounds solution to the assay plate by ECHO and incubated for 6 or 18 hours respectively at 37° C. & 5% CO2 incubator.
• 1). Added 30 uL 8% PFA into the wells and incubated 20 min at room temperature. • 2). Discarded the medium, washed the wells twice with DPBS to eliminate foam and bubbles in the well.
• 1). Diluted Hoechest-333824 in DPBS to get 2 μg/mL solution and added 30 uL/well into assay plate, incubated at room temperature for 20 mins. • 2). Discarded the supernatant, washed the wells twice with DPBS to eliminate foam and bubbles in the well. Then added DPBS 20 uL/well.
3). Scanned Plate by Operetta.
• 1). Reference compound: Torin 1 • 2). Test compounds: C1, C2, C3, C4, C5, C6. • 3). Diluted compounds in 384 LDV-dilution plate according to the dilution plate map • 4). Compounds starting concentration: Torin 1: 300 nM and Test compounds: 50 uM.
• 1). Selected all nucleus by Operetta as ‘All Cells’ • 2). Calculated the EGFP average intensity inside the Nucleus region. • 3). Selected population that the EGFP mean intensity inside the Nucleus region>background as the EGFP-positive cells • 4). Selected the Surrounding region of the nucleus and calculated the EGFP mean intensity of the region • 5). Inside the EGFP-positive cell population, selected the cells with EGFP mean intensity inside the Nucleus region/the EGFP mean intensity inside the surrounding region=1.2 (This ratio could be slightly adjusted from time to time) as the Translocation positive cell. • 6). Outputted the ratio of Translocation positive cell/EGFP-positive cells as the Translocation Positive Ratio. • 7). Each time set the ratio of DMSO group (Control Group) as ˜15% and then normalized the compound group to the DMSO group.

[3] = In Vitro Liver Microsomes Metabolic Stability Assay, human; type: in vitro ADME; settings: human liver microsomes 0.5 mg/mL, 1 μM compound, NADPH, 0 and 30 min; scale-up CLint; read-out: CLint, Human LM
Protocol: as §1, §2, §3, §4, §5, §6, §7, §8, §9, §10

[4] = In Vitro Liver Microsomes Metabolic Stability Assay, rat; type: in vitro ADME; settings: rat liver microsomes 0.5 mg/mL, 1 μM compound, NADPH, 0 and 30 min; scale-up CLint; read-out: CLint, Rat LM
Protocol: as §1, §2, §3, §4, §5, §6, §7, §8, §9, §10

CLint scaled at 1 μM [1] | EC50 [2] | CLint scaled at 1 μM [3] | CLint scaled at 1 μM [4] | Compound
– | < 100 nM | – | – | Cc1nc2ccn(Cc3ccc(Cl)c(F)c3)c(=O)c2cc1C(=O)NCc1ccccn1 [Example 75, 6-(4-chloro-3-fluorobenzyl)-2-methyl-5-oxo-N-(pyridin-2-ylmethyl)-5,6-dihydro-1,6-naphthyridine-3-carboxamide]
– | < 100 nM | – | – | Cc1nc2ccn(Cc3ccc(F)cc3)c(=O)c2cc1C(=O)NCc1ccccn1 [Example 47, 6-(4-fluorobenzyl)-2-methyl-5-oxo-N-(pyridin-2-ylmethyl)-5,6-dihydro-1,6-naphthyridine-3-carboxamide]
140 mL/min/kg | < 100 nM | – | 42 mL/min/kg | Cc1nc2ccn(Cc3ccc(Cl)cc3)c(=O)c2cc1C(=O)NCc1ccc(F)cn1 [Example 51, 6-(4-chlorobenzyl)-N-((5-fluoropyridin-2-yl)methyl)-2-methyl-5-oxo-5,6-dihydro-1,6-naphthyridine-3-carboxamide]
– | 1000 to 10000 nM | – | – | Cc1nc2ccn(CC34CC(C3)C4)c(=O)c2cc1C(=O)NCc1ccccn1 [Example 60, 6-(bicyclo[1.1.1]pentan-1-ylmethyl)-2-methyl-5-oxo-N-(pyridin-2-ylmethyl)-5,6-dihydro-1,6-naphthyridine-3-carboxamide]
– | 1000 to 10000 nM | – | – | Cc1nc2ccn(Cc3ccc(F)cn3)c(=O)c2cc1C(=O)NCc1ccccn1 [Example 44, 6-((5-fluoropyridin-2-yl)methyl)-2-methyl-5-oxo-N-(pyridin-2-ylmethyl)-5,6-dihydro-1,6-naphthyridine-3-carboxamide]
– | ≥ 10000 nM | – | – | CNC(=O)c1cc2c(=O)n(Cc3ccccc3)ccc2nc1C [Example 42, 6-benzyl-N,2-dimethyl-5-oxo-5,6-dihydro-1,6-naphthyridine-3-carboxamide]
– | < 100 nM | – | – | Cc1ccc(CNC(=O)c2cc3c(=O)n(Cc4cccs4)ccc3nc2C)o1 [Example 70, 2-methyl-N-((5-methylfuran-2-yl)methyl)-5-oxo-6-(thiophen-2-ylmethyl)-5,6-dihydro-1,6-naphthyridine-3-carboxamide]
– | 100 to 1000 nM | – | – | Cc1nc2ccn(C(C)C)c(=O)c2cc1C(=O)NCc1ccccn1 [Example 45, 6-isopropyl-2-methyl-5-oxo-N-(pyridin-2-ylmethyl)-5,6-dihydro-1,6-naphthyridine-3-carboxamide]
– | < 100 nM | – | – | Cc1nc2ccn(Cc3ccccc3)c(=O)c2cc1C(=O)NCc1cc(F)c(Cl)cn1 [Example 57, 6-benzyl-N-((5-chloro-4-fluoropyridin-2-yl)methyl)-2-methyl-5-oxo-5,6-dihydro-1,6-naphthyridine-3-carboxamide]
– | 1000 to 10000 nM | – | – | Cc1nc2ccn(Cc3ccccc3)c(=O)c2cc1C(=O)NCCc1ccco1 [Example 73, 6-benzyl-N-(2-(furan-2-yl)ethyl)-2-methyl-5-oxo-5,6-dihydro-1,6-naphthyridine-3-carboxamide]

More lines, now with the values behind:

Compound | CLint scaled at 1 μM [1] | EC50 [2] | CLint scaled at 1 μM [3] | CLint scaled at 1 μM [4]
Cc1nc2ccn(Cc3ccc(Cl)cc3)c(=O)c2cc1C(=O)NCc1ccccn1 [Example 31, 6-(4-chlorobenzyl)-2-methyl-5-oxo-N-(pyridin-2-ylmethyl)-5,6-dihydro-1,6-naphthyridine-3-carboxamide] | 132 mL/min/kg | < 100 nM | 1 mL/min/kg | 55 mL/min/kg
Cc1nc2ccn(Cc3ccccc3)c(=O)c2cc1C(=O)NCc1ccccc1 [Example 17, N,6-dibenzyl-2-methyl-5-oxo-5,6-dihydro-1,6-naphthyridine-3-carboxamide] | 470 mL/min/kg | 100 to 1000 nM | 15 mL/min/kg | 163 mL/min/kg
Cc1nc2ccn(Cc3ccco3)c(=O)c2cc1C(=O)NCC1CCC(Cl)CC1 (stereo not shown) [Comparator 2, reference compound] | 939 mL/min/kg | – | 77 mL/min/kg | 318 mL/min/kg
Cc1nc2ccn(Cc3ccccc3)c(=O)c2cc1C(=O)NCc1cccnn1 [Example 33, 6-benzyl-2-methyl-5-oxo-N-(pyridazin-3-ylmethyl)-5,6-dihydro-1,6-naphthyridine-3-carboxamide] | – | 1000 to 10000 nM | – | –
COCCn1ccc2nc(C)c(C(=O)NCc3cnc(C)o3)cc2c1=O [Example 21, 6-(2-methoxyethyl)-2-methyl-N-((2-methyloxazol-5-yl)methyl)-5-oxo-5,6-dihydro-1,6-naphthyridine-3-carboxamide] | – | ≥ 10000 nM | – | –
Cc1cnc(CNC(=O)c2cc3c(=O)n(Cc4ccccc4)ccc3nc2C)o1 [Example 3, 6-benzyl-2-methyl-N-((5-methyloxazol-2-yl)methyl)-5-oxo-5,6-dihydro-1,6-naphthyridine-3-carboxamide] | – | 100 to 1000 nM | – | –
Cc1ncc(CNC(=O)c2cc3c(=O)n(Cc4ccccc4)ccc3nc2C)o1 [Example 4, 6-benzyl-2-methyl-N-((2-methyloxazol-5-yl)methyl)-5-oxo-5,6-dihydro-1,6-naphthyridine-3-carboxamide] | – | 100 to 1000 nM | – | –
Cc1nc(CNC(=O)c2cc3c(=O)n(Cc4ccccc4)ccc3nc2C)no1 [Example 19, 6-benzyl-2-methyl-N-((5-methyl-1,2,4-oxadiazol-3-yl)methyl)-5-oxo-5,6-dihydro-1,6-naphthyridine-3-carboxamide] | – | 1000 to 10000 nM | – | –
Cc1nnc(CNC(=O)c2cc3c(=O)n(Cc4ccccc4)ccc3nc2C)o1 [Example 13, 6-benzyl-2-methyl-N-((5-methyl-1,3,4-oxadiazol-2-yl)methyl)-5-oxo-5,6-dihydro-1,6-naphthyridine-3-carboxamide] | – | 1000 to 10000 nM | – | –
Cc1nc2ccn(Cc3ccccc3)c(=O)c2cc1C(=O)NCc1ccn(C)n1 [Example 14, 6-benzyl-2-methyl-N-((1-methyl-1H-pyrazol-3-yl)methyl)-5-oxo-5,6-dihydro-1,6-naphthyridine-3-carboxamide] | – | 100 to 1000 nM | – | –
Cc1nc2ccn(Cc3ccccn3)c(=O)c2cc1C(=O)NCc1ccccn1 [Example 41, 2-methyl-5-oxo-N,6-bis(pyridin-2-ylmethyl)-5,6-dihydro-1,6-naphthyridine-3-carboxamide] | – | 1000 to 10000 nM | – | –
